Test system: brain of rats subjected to closed-head diffuse severe TBI (sTBI)
Test: HPLC of energy metabolites, antioxidants and oxidative/nitrosative stress biomarkers in brain, dose study after sTBI (Example 3)
Type: in vivo, rat
Details: for NAD^+/NADH ratio in brain homogenate: calculated, adimensional, rats 7 days post-sTBI
Description: Male Wistar rats (n=160) of 300-350 g body weight were used in this study.
1994, 80: 291-300. This model causes diffuse axonal injury and it is able to reproduce the physical and mechanical characteristics of the diffuse TBI in humans.
Rats were placed prone on a bed of specific polyurethane foam inserted in a special container. This foam dissipates the major part of the potential energy (deriving from the mechanical forces) and prevents any rebound of the animal after the impact that could produce spinal damages.
These time points are coincident with the worst biochemical derangement (2 days) or, in the case of a mildly injured brain, with a full metabolic recovery (7 days).
The drug treatment consisted in a subcutaneous injection of 0.5 ml of LMW-DS (Tikomed) and administered at 3 different concentrations (1, 5 and 15 mg/kg body weight), according to the schematic protocol described below.
Sham-operated animals underwent the same procedure of anesthesia but TBI and were used as the control group.
Rats used in this study were divided into 4 groups in order to carry out a study on the efficacy of three different concentrations of LMW-DS at two different times post TBI. As subsequently specified, in each group there were animals subjected to a specific treatment for metabolic analyses and other animals intended to histo-morphological studies, according to the procedures described below.
Rats subjected to sTBI and receiving a single administration of LMW-DS after 30 minutes post-TBI, with sacrifice at 2 days post-TBI. Animals were divided in the following subgroups:
Rats subjected to sTBI and receiving a single administration of LMW-DS after 30 minutes post-TBI, with sacrifice at 7 days post-TBI. Animals were divided in the following subgroups:
Rats (n=12) subjected to sTBI and receiving repeated administrations of the maximal dose of LMW-DS (15 mg/kg b.w.) after 30 minutes, 3 days and 5 days post-TBI, with sacrifice at 7 days post-TBI. Four additional rats were used for the histo-morphological studies. Total rats in this group: n=16
To minimize metabolite loss, an in vivo craniectomy was performed in all animals during anesthesia. The rat skull was carefully removed, the brain was exposed, sharply cut along the sagittal fissure and the two hemispheres were separated. The hemispheres dedicated to biochemical analyses were freeze-clamped by aluminum tongues pre-cooled in liquid nitrogen and then immersed in liquid nitrogen. The freeze-clamping procedure was introduced to accelerate freezing of the tissue, thus minimizing potential metabolite loss.
Tissue homogenization for metabolite analyses was effected as described below. After the wet weight (w.w.) determination, the frozen hemispheres were placed into 7 ml of ice-cold, nitrogen-saturated, precipitating solution (1:10 w/v) composed by CH3CN+10 mM KH2PO4, pH 7.40, (3:1; v:v), and the homogenization was performed using an Ultra-Turrax homogenizer set at 24,000 rpm/min (Janke & Kunkel, Staufen, Germany). After centrifugation at 20,690×g, for 10 min at 4° C., the clear supernatants were saved, pellets were supplemented with an aliquot of 10 mM KH2PO4 and homogenized again as described above and saved overnight at −20° C. in order to obtain a complete recovery of aqueous phase from tissue. A second centrifugation was performed (20,690×g, for 10 min at 4° C.) and supernatants combined with those previously obtained were extracted by vigorous agitation with a double volume of HPLC-grade CHCl3 and centrifuged as above.

[1] = 1 mg/kg b.w. single, 30 min after trauma, 2 days post-TBI
[2] = 1 mg/kg b.w. single, 30 min after trauma, 2 days post-sTBI
[3] = 5 mg/kg b.w. single, 30 min after trauma, 2 days post-TBI
[4] = 5 mg/kg b.w. single, 30 min after trauma, 2 days post-sTBI
[5] = 15 mg/kg b.w. single, 30 min after trauma, 2 days post-sTBI
[6] = rats 2 days post-TBI, single 1 mg/kg b.w. 30 min after trauma
[7] = rats 2 days post-TBI, single 5 mg/kg b.w. 30 min after trauma
[8] = rats 2 days post-TBI, single 15 mg/kg b.w. 30 min after trauma

Substance: sodium salt of dextran sulfate [LMW-DS]
- NO2 brain concentration [1]: 158.36 ± 19.08 nmol/g w.w.
- acetyl-CoA brain concentration [1]: 27.74 ± 3.23 nmol/g w.w.
- ascorbic acid brain concentration [1]: 2567.35 ± 147.76 nmol/g w.w.
- AMP brain concentration [2]: 62.04 ± 7.46 nmol/g w.w.
- CMP brain concentration [2]: 29.39 ± 6.00 nmol/g w.w.
- CTP brain concentration [2]: 33.01 ± 7.63 nmol/g w.w.
- GDP glucose brain concentration [2]: 65.66 ± 41.61 nmol/g w.w.
- GMP brain concentration [2]: 205.06 ± 25.74 nmol/g w.w.
- IMP brain concentration [2]: 45.97 ± 8.65 nmol/g w.w.
- NAD^+/NADH ratio (adimensional) [2]: 33.91 ± 9.32
- UDP-Gal brain concentration [2]: 118.50 ± 9.89 nmol/g w.w.
- UDP-GalNac brain concentration [2]: 21.24 ± 3.13 nmol/g w.w.
- UDP-Glc brain concentration [2]: 45.14 ± 6.68 nmol/g w.w.
- UDP-GlcNac brain concentration [2]: 96.62 ± 8.80 nmol/g w.w.
- UMP brain concentration [2]: 148.04 ± 20.45 nmol/g w.w.
- UTP brain concentration [2]: 104.07 ± 16.34 nmol/g w.w.
- GSH brain concentration [3]: 2067.79 ± 301.54 nmol/g w.w.
- NO2 brain concentration [3]: 218.12 ± 26.28 nmol/g w.w.
- NO3 brain concentration [3]: 148.41 ± 32.30 nmol/g w.w.
- acetyl-CoA brain concentration [3]: 34.85 ± 4.05 nmol/g w.w.
- ascorbic acid brain concentration [3]: 2626.68 ± 151.17 nmol/g w.w.
- AMP brain concentration [4]: 67.03 ± 11.85 nmol/g w.w.
- CTP brain concentration [4]: 37.72 ± 7.63 nmol/g w.w.
- GDP brain concentration [4]: 183.27 ± 25.32 nmol/g w.w.
- GDP glucose brain concentration [4]: 83.81 ± 37.35 nmol/g w.w.
- NAD^+ brain concentration [4]: 376.85 ± 64.15 nmol/g w.w.
- NAD^+/NADH ratio (adimensional) [4]: 36.61 ± 6.09
- UDP-GalNac brain concentration [4]: 20.75 ± 3.06 nmol/g w.w.
- UTP brain concentration [4]: 142.82 ± 22.43 nmol/g w.w.
- GSH brain concentration (15 mg/kg b.w. single, 30 min after trauma, 2 days post-TBI): 2418.94 ± 352.75 nmol/g w.w.
- ADP-ribose brain concentration [5]: 23.06 ± 4.63 nmol/g w.w.
- AMP brain concentration [5]: 66.26 ± 10.74 nmol/g w.w.
- CTP brain concentration [5]: 37.53 ± 7.59 nmol/g w.w.
- GDP brain concentration [5]: 194.61 ± 26.88 nmol/g w.w.
- GDP glucose brain concentration [5]: 84.24 ± 37.54 nmol/g w.w.
- GMP brain concentration [5]: 178.88 ± 22.46 nmol/g w.w.
- NADPH brain concentration [5]: 8.93 ± 0.74 nmol/g w.w.
- NADP^+ brain concentration [5]: 17.75 ± 4.06 nmol/g w.w.
- NAD^+ brain concentration [5]: 475.32 ±80.91 nmol/g w.w.
- NAD^+/NADH ratio (adimensional) [5]: 44.40 ± 7.67
- UDP brain concentration [5]: 80.00 ± 8.20 nmol/g w.w.
- UDP-GalNac brain concentration [5]: 22.37 ± 3.30 nmol/g w.w.
- UDP-Glc brain concentration [5]: 43.41 ± 6.43 nmol/g w.w.
- UDP-GlcNac brain concentration [5]: 108.74 ± 9.90 nmol/g w.w.
- UMP brain concentration [5]: 147.53 ± 20.38 nmol/g w.w.
- UTP brain concentration [5]: 108.21 ± 16.99 nmol/g w.w.
- concentrations of ascorbic acid and reduced glutathione (GSH) (2 days post impact): significantly ameliorated
- NAA concentration (FIG. 7) (2 days post impact, 5 or 15 mg/kg b.w.): significantly higher than values found in sTBI rats
- concentrations of UTP and ADP (2 days post-sTBI): No effects
- nicotinic coenzyme pool (2 days post-sTBI, 15 mg/kg b.w.): significant protection
- Acetyl-CoA (2 days post-sTBI, 5 or 15 mg/kg b.w.): partial rescue
- high energy phosphates (ATP, GTP, and CTP) (2 days post-sTBI, all three dosages (1, 5, 15 mg/kg)): Significantly higher values
- ATP level, decrease versus value of controls (7 days post impact, untreated sTBI 35% decrease): 16%
- NAA concentration, decrease versus value of controls (7 days post impact, untreated sTBI 48% lower): 16%
- NAD+ level and NAD/NADH ratio (7 days post injury, single and repeat 15 mg/kg b.w.): normalize
- NAA (FIG. 11) (7 days post sTBI, increasing single doses or repeat maximal dose): dose dependent increase
- CoA-SH and Acetyl-CoA (7 days post-sTBI, 5 or 15 mg/kg b.w. (single and repeat)): Remarkable positive effects
- ATP (FIG. 8) (7 days post-sTBI, any dose tested): significant increases
- NAD^+/NADH ratio in brain homogenate (repeated 15 mg/kg b.w.): 37.47 ± 9.46
- NAD^+/NADH ratio in brain homogenate (single 1 mg/kg b.w.): 33.91 ± 9.32
- NAD^+/NADH ratio in brain homogenate (single 5 mg/kg b.w.): 33.90 ± 7.19
- ADENOSINE concentration in brain homogenate [6]: 68.91 ± 16.50 nmol/g w.w.
- CDP choline concentration in brain homogenate [6]: 8.23 ± 1.22 nmol/g w.w.
- CREATININE concentration in brain homogenate [6]: 17.66 ± 3.29 nmol/g w.w.
- CYTIDINE concentration in brain homogenate [6]: 13.79 ± 2.49 nmol/g w.w.
- CYTOSINE concentration in brain homogenate [6]: 13.47 ± 1.65 nmol/g w.w.
- URACIL concentration in brain homogenate [6]: 17.18 ± 3.36 nmol/g w.w.
- CYTOSINE concentration in brain homogenate [7]: 13.65 ± 1.67 nmol/g w.w.
- URACIL concentration in brain homogenate [7]: 17.83 ± 3.48 nmol/g w.w.
- URIDINE concentration in brain homogenate [7]: 117.21 ± 20.64 nmol/g w.w.
- XANTHINE concentration in brain homogenate [7]: 6.71 ± 0.70 nmol/g w.w.
- ADENOSINE concentration in brain homogenate [8]: 53.25 ± 12.75 nmol/g w.w.
- CDP choline concentration in brain homogenate [8]: 7.07 ± 1.05 nmol/g w.w.
- CYTIDINE concentration in brain homogenate [8]: 11.46 ± 2.07 nmol/g w.w.
- CYTOSINE concentration in brain homogenate [8]: 13.57 ± 1.66 nmol/g w.w.
